# Experimental data published in patent US20240228542A1, “LYTIC DOMAIN FUSION CONSTRUCTS, CHECKPOINT INHIBITORS, AND METHODS OF MAKING AND USING SAME” (A28 Therapeutics Inc., priority 2020, published 2024).
# Where “and” joins values, the source holds several entries; their conditions need not be identical. Equal values may be shown once. Entries after “also recorded” stand apart in the source; their conditions may differ.
# Legend:
# NIH:3T3 = assay type: cell-based, mouse; conditions: noncancerous cell line 3T3
# Method: (§1) The melanoma cell line studied was MDA-MB-435S (estrogen receptor alpha negative), breast cancer cell lines MCF-7 and T47D (estrogen receptor alpha positive), ovarian cancer cell lines (OVCAR-3 and SKOV-3), prostate cancer (LNCaP), the non-malignant breast epithelial cell line MCF-10A and the mouse fibroblast cell line NIH:3T3.
# (§2) Cells were seeded into 96 well plates at a density of 10,000 cells/well. […] Controls contained USP saline or 0.1% TritonX-100™ as reference for 0 and 100% cell death, respectively. Incubations were terminated by removing the culture media after 2 minutes, 5 minutes, 15 minutes, 30 minutes, 1 hour, 2 hours, 6 hours, 24 and 48 hours. Cell viability was assessed through formazan conversion assay (MTT assay, (CellTiter 96 Aqueous One, Promega # G3582). Formazan conversion was determined using a BioRad Benchmark Plus microplate spectrophotometer dual wavelengths at 490/630 nm at room temperature).
# Data were calculated as fraction of absorption in TritonX-100™ containing wells representing 100% cell death versus 0% cell death in saline containing wells. Cytotoxicity was determined as ICso using GraphPad Prism version 5.01 for Windows, GraphPad Software, San Diego California USA according to the program for sigmoidal dose response with variable slope using constraint values of 0 and 100%. 4 wells of each individual set of two 96 well plates were compared and analyzed. […]
# PC-3 xenograft = assay: PC-3 prostate cancer xenograft; assay type: in vivo, Nu/Nu mice; conditions: for tumor growth: PC-3 xenograft, CLIP71 5 mg/kg
# Method: In brief, Nu/Nu male mice, outbred strain, age 6 weeks (Charles River) were injected subcutaneously with a PC-3 cells/Matrigel suspension (1×10^6 cells/mouse). Treatment was started on day 15 after tumor cell injection when the tumors were established and continued on days 22 and 29. The doses for the 3 weekly injections were 2, 0.2 and 0.02 mg/kg body weight, given as a bolus single intravenous injection via lateral tail vein.
# A group of 12 tumor bearing mice was sacrificed on day 15 and served as baseline group. All mice were necropsied 35 and 36 days after tumor cell injection. Tumor volumes and bodyweights were recorded twice weekly during the study, as well as overall veterinarian examination of mice was conducted.
# (§3) Primary tumors, liver, kidney, pancreas, heart, lung, and spleen were collected, fixed in formalin and prepared for histological evaluation. Tumor weights were measured at necropsy, part of the tumors were frozen at −80° C. for LH/CG and LHRH receptor assay determination.
# MDA-MB-435S xenograft = assay: MDA-MB-435S xenograft, minimal effective dose, once weekly; assay type: in vivo, Nu/Nu mice
# Method: To determine the minimal effective dose necessary to reduce MDA-MB-435S xenograft weights in a single dose regimen, Nu/Nu female mice, outbred strain, age 5 weeks (Charles River), were injected (s.c.) into the interscapular region with a MDA-MB-435S (passage #249)/Matrigel suspension (2.4×10^6 cells/mouse) [Leuschner 2006].
# Each group consisted of 16 mice, which were injected once a week for 3 weeks. A group of 16 mice was sacrificed at the time of treatment start to serve as baseline. Saline injections served as control groups. During the entire study tumor volumes were recorded twice weekly.
# Treatment started on day 16 after tumor cell injection when the tumors were established and continued on days 23 and 30. All remaining mice were necropsied 37 days after tumor cell injection.
# Treatment response was determined by tumor weights and tumor weight change at necropsy compared to saline controls and untargeted CLIP71 treatment. Primary tumors were collected, weighed and prepared for histological evaluation in formalin fixation with 10% PBS buffered formalin. Statistical evaluation of data sets were conducted in GraphPad Prizm 4 and significance calculated by Wilcoxon signed-rank test.
# OVCAR-3 cells = assay type: cell-based, human; conditions: for incubation time to maximal efficacy: OVCAR-3 cells
# Text: (§4) Membranes of non-cancerous cell lines are neutral and are resistant to cytolytic peptides, in contrast to cancer cell lines, which have a high phosphatidic acid content in their outer membrane.
# as §1, §2
# (§5) Data were calculated as fraction of absorption in TritonX-100™ containing wells representing 100% cell death versus 0% cell death in saline containing wells. Cytotoxicity was determined as ICso using GraphPad Prism version 5.01 for Windows, GraphPad Software, San Diego California USA according to the program for sigmoidal dose response with variable slope using constraint values of 0 and 100%. 4 wells of each individual set of two 96 well plates were compared and analyzed. Statistical analysis for significance was determined by a two-tailed Student's T-test.
# MCF-7 cells = assay: Time course of cytotoxicity in MCF-7 cells (MTT); assay type: cell-based, human; conditions: for incubation time to maximal efficacy: MCF-7 cells
# Text: as §4, §1, §2, §5
# OVCAR-3 xenograft = assay: OVCAR-3 ovarian cancer xenograft; assay type: in vivo, Nu/Nu mice; conditions: for tumor volume: CLIP71 2 mg/kg, cisplatinum 10 mg/kg
# Method: In brief, Nu/Nu female mice, inbred strain, age 5 weeks (Harlan-Sprague Dawley) were injected subcutaneously with a NIH:OVCAR-3 cells/Matrigel suspension (4.6×10^6 cells/mouse). Treatment was started on day 33 after tumor cell injection when the tumors were established and continued on days 41 and 47. The doses for the 3 weekly injections were 0.02, 0.2 and 2 mg/kg body weight, given as a single bolus intravenous injection via lateral tail vein administered once a week for three weeks on days 33, 41 and 47. Necropsies were conducted on day 52. Data are presented as mean […]SEM. Arrows show dosing.
# A group of 9 tumor bearing mice was sacrificed on day 33 and served as baseline group. All mice were necropsied 51-52 days after tumor cell injection. Tumor volumes and bodyweights were recorded twice weekly during the study, as well as overall veterinarian examination of mice was conducted.
# as §3
# As a biomarker for drug activity, CA 125 was determined in serum, collected from each individual mouse at necropsy using a Enzyme Linked Immunoassay for quantitative determination of ovarian cancer antigen CA125 (Assay kit Genway, Biotech, Inc. San Diego, CA, Catalog #40-052-115009, #BC-1013 according to the manufacturer).
# LHRH receptor levels were assessed from formalin fixed tumors. Quantitative immunoperoxidase image analysis was conducted with the Ventana Image Analysis System (VIAS) adjunctive computer assisted image analysis system functionally connected to an interactive microscope (Axio Imager). The quantitative analysis was conducted with the program for quantification of Her2/neu receptor that included morphometric and colorimetric analysis. Receptor status results were reported as percentage of cells showing positive staining of the LHRH receptors under the following criteria: 0 non-immunoreactive, 1+: 1-25% positive, 2+: 26-50% positive, 3+: 51-75% positive cells.
# MDA-MB-435S cells = assay: Time course of cytotoxicity in MDA-MB-435S cells (MTT); assay type: cell-based, human; conditions: for IC50: MDA-MB 435S; for incubation time to maximal efficacy: MDA-MB-435S cells
# Text: as §4, §1, §2, §5
# [1] = MDA-MB-435S.luc, 1 × 3 wk, 22 d, minimal effective dose study
sequence,measurement,setting,value
KFAKFAKKFAKFAKKFAKQHWSYGLRPG [Phor18-LHRH],IC50,NIH:3T3,> 10 µM
same,lowest concentration with tumor volume reduction compared to saline controls and CLIP71,"PC-3 xenograft; 22 days after tumor cell injection, p<0.001",0.002 mg/kg bodyweight
same,Median Tumor Weight vs Baseline p < 0.05 (doses),"PC-3 xenograft; PC-3, 1 × 3 wk, 21 d",0.2
same,tumor growth,PC-3 xenograft,effective in arresting tumor growth
same,Median Tumor Weight vs Baseline p < 0.05 (lowest dose),MDA-MB-435S xenograft; [1],2 µg/kg
same,Median Tumor Weight vs Saline P < 0.05 (lowest dose),MDA-MB-435S xenograft; [1],0.2 µg/kg
same,Remarks / histology of tumors,"MDA-MB-435S xenograft; Phor18-LHRH at doses as low as 0.0002 mg/kg, CLIP71/LHRH 0.2/0.122 mg/kg",significant necrosis
same,IC50,"OVCAR-3 cells; OVCAR-3 (p47), read-out: IC50 with increasing incubation time",0.5 µM
same,incubation time to maximal efficacy,OVCAR-3 cells,1 h and 0.5 to 1 h
same,IC50,"MCF-7 cells; MCF-7 (p152), read-out: IC50 with increasing incubation time",1.8 to 3.4 µM
same,incubation time to maximal efficacy,MCF-7 cells,1 h and 0.5 to 1 h
same,lowest concentration with tumor volume reduction compared to baseline,"OVCAR-3 xenograft; 42 days after tumor cell injection, p<0.001",0.2 mg/kg bodyweight
same,Median Tumor Weight vs Baseline p < 0.05 (doses),"OVCAR-3 xenograft; OVCAR-3, 1 × 3 wk, 20 d",200 µg/kg
same,Remarks / histology of treated tumors,OVCAR-3 xenograft; OVCAR-3 xenograft,significant necrosis
same,tumor volume,OVCAR-3 xenograft; OVCAR-3 xenograft,Tumor volumes decreased
same,CA125 secretion (serum),OVCAR-3 xenograft; greatest at 0.2 and 2 mg/kg (p<0.0002 vs saline),reduced
same,reduction of LHRH receptor levels,"OVCAR-3 xenograft; treated tumors, immunoperoxidase image analysis",1-2 score points
same,IC50,MDA-MB-435S cells; 0.5 hour,1.2 µM
same,IC50,MDA-MB-435S cells; 1 hour,0.6 µM
same,incubation time to maximal efficacy,MDA-MB-435S cells,1 h and 0.5 to 1 h
"KFAKFAKKFAKFAKKFAK [Phor18, reference compound]",IC50,NIH:3T3,> 40 µM
same,tumor growth,PC-3 xenograft,tumor growth was observed
same,tumor volumes and tumor weights,MDA-MB-435S xenograft; CLIP71 plus LHRH 0.2/0.122 mg/kg,did not decrease tumor weights
same,incubation time to maximal efficacy,OVCAR-3 cells,24 h
same,incubation time to maximal efficacy,MCF-7 cells,24 h
same,tumor weights,OVCAR-3 xenograft; OVCAR-3 xenograft at necropsy,not effective in reducing tumor weights
same,tumor volume,OVCAR-3 xenograft; OVCAR-3 xenograft,tumor growth was observed; also recorded: no reduction in tumor volume
same,IC50,MDA-MB-435S cells; 24 hours,55.1 µM
same,IC50,MDA-MB-435S cells; 48 hours,3 µM
same,incubation time to maximal efficacy,MDA-MB-435S cells,24 h
